Results on one substance are retold here after patent US20030050237A1, “Prolonged delivery of peptides” (Scios Inc., priority 1993, published 2003).

A short description of this assay: Insulinotropin infusion, plasma glucose levels in patients with NIDDM. Particulars: raising peptide around meal time alone, for periods of up to one hour. It is filed as in vivo.

In the case of “His-Asp-Glu-Phe-Glu-Arg-His-Ala-Glu-Gly-Thr-Phe-Thr-Ser-Asp-Val-Ser-Ser-Tyr-Leu-Glu-Gly-Gln-Ala-Ala-Lys-Glu-Phe-Ile-Ala-Trp-Leu-Val-Lys-Gly-Arg-Gly [GLP-1]”, the glycemic control entry was “will not adequately control the glucose levels”.
